Assay results reported in patent US4250259A, “Microbiological production of ketones from C3 -C6 secondary alcohols” (priority 1979, dated 1981).
Read-outs that look alike come from different tables or passages of the source.

How the values were obtained:
[1] = system: particulate P(40) fraction; experiment: hydroxylation of n-alkanes to secondary alcohols by particulate P(40) fraction (Table XVII); assay type: biochemical, Methylobacterium sp. (CRL-26, NRRL-B-11,222)
From the text: (§1) Both cell suspensions (particulate fraction) and cell-free particulate fraction of methane-grown methylotroph microorganisms are capable of catalyzing the conversion of C3 -C6 n-alkanes to the corresponding alcohols including secondary alcohols. The conditions for preparing the cell suspensions or the cell-free particulate fractions from methane-grown methylotroph microorganisms is the same as described above. The cell-free particulate fraction requires the presence of oxygen and NADH as an electron donor. […] Tables XVI and XVII show the conversion of C3 -C6 n-alkanes to the corresponding secondary alcohols using cell suspensions and cell-free particulate fractions, respectively, of methane-grown methylotroph microorganisms.
(§2) ^(a) Particulate P(40) fraction was prepared as follows:
(§3) Cellsuspensions at 4° C. were disintegrated through a French
(§4) Pressure cell and centrifuged at 4000 × g. for 15 min. to remove
(§5) unbroken bacteria. The supernatant solution was then centrifuged at 40,00
(§6) × g. for 30 min. at 4° C., yielding the particulate P(40) an
(§7) soluble S(40) fractions. The products were identified by gas
(§8) chromatography and cochromatography with authentic standard.

[2] = system: Methylosinus trichosporium OB3b NRRL B-11,196; experiment: conversion of n-alkanes to oxidation products by cell suspensions (Table XVIII); assay type: cell-based; conditions: methane-grown cell suspension; pH 7.0
Method: (§12) ^(a) Cell-suspensions of methanegrown methylotroph microorganisms
(§13) indicated in 0.15 M phosphate buffer, pH 7.0 incubated in the alkanes as
(§14) indicated at 3° C. The oxidation products were determined by g.l.c

[3] = system: Methylosinus sporium 5 (NRRL B-11,197); experiment: n-alkanes to methyl ketones by resting cell suspensions (Table I); assay type: cell-based; conditions: cells grown on methane; 30° C.
Method: (§9) The pH of the nutrient medium was adjusted to 7.0 by the addition of acid or base and 50 ml. samples of the nutrient medium were charged into a plurality of 300 ml. shaker flasks. […] The isolates had been maintained on methanol (0.4% V/V) agar plates or on agar plates under an atmosphere of methane and air having a 1:1 V/V gas ratio which had been transferred every two weeks. For growth on methanol, the medium was supplemented with 0.4% methanol. For growth on methane, the gaseous phase of the inoculated flasks was replaced with a gas mixture comprised of methane and air having a ratio of 1:1 on a V/V basis. The inoculated flasks were sealed air-tight and were incubated on a rotary shaker of orbital radius 2.5 cm. at 250 rpm and at 30° C. for two days until turbidity in the medium had developed. The cells were harvested by centrifugation at 10,000×g. at 4° C. for 30 minutes. The cell pellet was washed twice with a 0.05 M phosphate buffer at a pH of 7.0 (containing 0.02 M MgCl2). The washed cells were then suspended in a 0.05 M phosphate buffer at pH 7.0.
(§10) A 0.5 ml. sample of each washed cell suspension (2 mg. cells) was put into 10 ml. vials at 4° C. which were sealed with a rubber cap. The gaseous phase of the vials was removed with vacuum and then was replaced with a gas mixture of the substrate reactant (i.e., alkane or secondary alcohol) and oxygen at a 1:1 V/V ratio. (In the case of a liquid substrate, i.e., secondary alcohol, 10 μl of the substrate was put in the 10 ml. vials). The vials were then incubated at 30° C. on a rotary shaker at 300 rpm. Samples of product (1-3 μl) were withdrawn periodically with a microsyringe and the products were analyzed by gas chromatography (ionization flame detector column).

[4] = system: Methylomonas methanica SI (NRRL B-11,199); experiment: as above; assay type: cell-based; conditions: cells grown on methane; 30° C.
Method: as §9, §10

[5] = system: Methylobacterium organophilum XX; experiment: as above; assay type: cell-based; conditions: cells grown on methane; 30° C.
Method: as §9, §10

[6] = system: Methylococcus capsulatus Texas (ATCC 19069); experiment: as above; assay type: cell-based; conditions: cells grown on methane; 30° C.
Method: as §9, §10

[7] = system: Methylobacter capsulatus Y (NRRL B-11,201); experiment: as above; assay type: cell-based; conditions: cells grown on methane; 30° C.
Method: as §9, §10

[8] = system: Methylosinus trichosporium OB3b (NRRL B-11,196); experiment: as above; assay type: cell-based; conditions: cells grown on methane; 30° C.
Method: as §9, §10

[9] = system: Methylomonas albus BG8 (NRRL B-11,200); experiment: as above; assay type: cell-based; conditions: cells grown on methane; 30° C.
Method: as §9, §10

[10] = system: Methylocystis parvus OBBP (NRRL B-11,198); experiment: as above; assay type: cell-based; conditions: cells grown on methane; 30° C.
Method: as §9, §10

[11] = system: Methylococcus capsulatus CRL M1 NRRL B-11,219; experiment: conversion of n-alkanes to oxidation products by cell suspensions (Table XVIII); assay type: cell-based; conditions: methane-grown cell suspension; pH 7.0
Method: as §12, §13, §14

[12] = target: particulate P(40) fraction (Methylosinus trichosporium, UniProt Q50541+Q9KX50+Q9KX51); experiment: hydroxylation of n-alkanes to secondary alcohols by particulate P(40) fraction (Table XVII); assay type: biochemical, Methylosinus sp. (CRL-15, NRRL-B-11,202)
From the text: as §1, §2, §3, §4, §5, §6, §7, §8
Target sequence in this assay (Q9KX50 40-431): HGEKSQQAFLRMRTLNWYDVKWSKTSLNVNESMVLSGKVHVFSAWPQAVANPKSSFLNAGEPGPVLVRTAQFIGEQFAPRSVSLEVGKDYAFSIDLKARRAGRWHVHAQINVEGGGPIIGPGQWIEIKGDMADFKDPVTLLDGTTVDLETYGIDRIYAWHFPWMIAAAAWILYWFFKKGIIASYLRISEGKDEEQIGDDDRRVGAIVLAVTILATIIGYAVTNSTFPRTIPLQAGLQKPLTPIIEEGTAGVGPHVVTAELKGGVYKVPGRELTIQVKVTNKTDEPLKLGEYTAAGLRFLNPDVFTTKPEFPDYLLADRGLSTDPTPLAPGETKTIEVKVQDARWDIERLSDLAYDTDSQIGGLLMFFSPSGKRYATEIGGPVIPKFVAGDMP
Target sequence in this assay (Q50541 1-252): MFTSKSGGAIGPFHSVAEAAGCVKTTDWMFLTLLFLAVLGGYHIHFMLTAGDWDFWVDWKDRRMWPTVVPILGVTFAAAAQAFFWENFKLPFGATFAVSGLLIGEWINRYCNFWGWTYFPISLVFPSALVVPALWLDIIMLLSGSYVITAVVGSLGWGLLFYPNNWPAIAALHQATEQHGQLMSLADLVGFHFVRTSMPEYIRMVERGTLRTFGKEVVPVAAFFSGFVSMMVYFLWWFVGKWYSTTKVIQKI
Target sequence in this assay (Q9KX51 1-256): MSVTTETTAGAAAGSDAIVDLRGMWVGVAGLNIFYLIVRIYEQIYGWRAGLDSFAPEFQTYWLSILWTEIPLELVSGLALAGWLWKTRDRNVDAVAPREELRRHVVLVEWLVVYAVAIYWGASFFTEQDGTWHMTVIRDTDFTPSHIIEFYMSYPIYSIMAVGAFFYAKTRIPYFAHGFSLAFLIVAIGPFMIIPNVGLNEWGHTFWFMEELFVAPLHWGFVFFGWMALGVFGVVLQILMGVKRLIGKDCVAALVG

[13] = system: Methylobacter capsulatus (Y, NRRL-B-11,201); experiment: n-alkanes to secondary alcohols by cell suspensions (Table XVI); assay type: cell-based; conditions: Growth Substrate Methane
From the text: as §1
(§11) ^(a) The product secondary alcohols were identified and estimated by […]

[14] = system: Methylobacterium sp. (CRL-26, NRRL-B-11,208); experiment: as above; assay type: cell-based; conditions: Growth Substrate Methane
From the text: as §1, §11

[15] = system: Methylosinus sp. (CRL-15, NRRL-B-11,202); experiment: as above; assay type: cell-based; conditions: Growth Substrate Methane
From the text: as §1, §11

[16] = system: Methylococcus capsulatus (Texas, ATCC 19,069); experiment: as above; assay type: cell-based; conditions: Growth Substrate Methane
From the text: as §1, §11

[17] = system: Methylosinus trichosporium (OB3b, NRRL-B-11,196); experiment: as above; assay type: cell-based; conditions: Growth Substrate Methane
From the text: as §1, §11

[18] = system: Methylomonas sp. (CRL-17, NRRL-B-11,209); experiment: as above; assay type: cell-based; conditions: Growth Substrate Methane
From the text: as §1, §11

[19] = target: particulate P(40) fraction (Methylococcus capsulatus, UniProt G1UBD1+Q603F1+Q607G3); experiment: hydroxylation of n-alkanes to secondary alcohols by particulate P(40) fraction (Table XVII); assay type: biochemical, Methylococcus capsulatus (Texas, ATCC 19,069)
Sequence of particulate P(40) fraction (Methylococcus capsulatus, UniProt G1UBD1+Q603F1+Q607G3) (Q607G3 whole entry): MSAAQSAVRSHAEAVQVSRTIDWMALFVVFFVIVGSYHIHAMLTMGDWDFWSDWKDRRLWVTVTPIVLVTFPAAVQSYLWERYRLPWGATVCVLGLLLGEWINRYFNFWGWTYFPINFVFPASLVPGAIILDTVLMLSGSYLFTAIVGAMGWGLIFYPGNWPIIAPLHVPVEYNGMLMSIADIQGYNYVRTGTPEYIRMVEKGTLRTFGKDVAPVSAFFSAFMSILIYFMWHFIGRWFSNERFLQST
Sequence of particulate P(40) fraction (Methylococcus capsulatus, UniProt G1UBD1+Q603F1+Q607G3) (G1UBD1 33-414): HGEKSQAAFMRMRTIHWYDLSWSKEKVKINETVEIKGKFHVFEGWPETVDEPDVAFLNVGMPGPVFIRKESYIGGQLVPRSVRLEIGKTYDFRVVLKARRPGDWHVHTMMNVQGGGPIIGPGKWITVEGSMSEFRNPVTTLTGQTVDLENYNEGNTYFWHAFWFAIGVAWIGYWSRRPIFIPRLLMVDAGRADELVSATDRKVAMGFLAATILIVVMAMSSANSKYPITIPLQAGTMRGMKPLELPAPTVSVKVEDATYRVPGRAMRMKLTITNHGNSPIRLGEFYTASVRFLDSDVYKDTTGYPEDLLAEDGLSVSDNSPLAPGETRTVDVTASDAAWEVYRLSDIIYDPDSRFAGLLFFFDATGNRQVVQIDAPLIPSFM
Sequence of particulate P(40) fraction (Methylococcus capsulatus, UniProt G1UBD1+Q603F1+Q607G3) (Q603F1 1-260): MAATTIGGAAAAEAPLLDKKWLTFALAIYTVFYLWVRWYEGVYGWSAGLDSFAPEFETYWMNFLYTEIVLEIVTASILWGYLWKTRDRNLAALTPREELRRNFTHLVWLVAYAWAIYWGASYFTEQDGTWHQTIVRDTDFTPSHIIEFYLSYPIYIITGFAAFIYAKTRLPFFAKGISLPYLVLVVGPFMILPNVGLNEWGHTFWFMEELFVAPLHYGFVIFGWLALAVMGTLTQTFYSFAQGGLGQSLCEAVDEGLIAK
From the text: as §1, §2, §3, §4, §5, §6, §7, §8

[20] = target: particulate P(40) fraction (Methylosinus trichosporium, UniProt Q50541+Q9KX50+Q9KX51); experiment: as above; assay type: biochemical, Methylosinus trichosporium (OB3b, NRRL-B-11,196)
From the text: as §1, §2, §3, §4, §5, §6, §7, §8
Target sequence in this assay (Q50541 1-252): as the sequence (Q50541 1-252) above
Target sequence in this assay (Q9KX50 40-431): as the sequence (Q9KX50 40-431) above
Target sequence in this assay (Q9KX51 1-256): as the sequence (Q9KX51 1-256) above

CCCC [n-Butane, n-butane]
Conversion Rate, n-alkane to corresponding secondary alcohol [1]: 0.61 μmoles/hr/2.0mg. of protein | Conversion Rate, product 1-Butanol [2]: 0.3 μmoles/hr./mg./protein | Conversion Rate, product 2-Butanol [2]: 0.4 μmoles/hr./mg./protein | Conversion Rate, product 2-Butanone [2]: 0.1 μmoles/hr./mg./protein | Conversion Rate, product n-butanol [2]: 0.1 μmoles/hr./mg./protein | Conversion Rates, n-alkane to corresponding methyl ketone [3]: 0.58 μmoles/hr/mg protein | Conversion Rates, n-alkane to corresponding methyl ketone [4]: 0.30 μmoles/hr/mg protein | Conversion Rates, n-alkane to corresponding methyl ketone [5]: 2.0 μmoles/hr/mg protein | Conversion Rates, n-alkane to corresponding methyl ketone [6]: 0.52 μmoles/hr/mg protein | Conversion Rates, n-alkane to corresponding methyl ketone [7]: 1.1 μmoles/hr/mg protein | Conversion Rates, n-alkane to corresponding methyl ketone [8]: 1.2 μmoles/hr/mg protein | Conversion Rates, n-alkane to corresponding methyl ketone [9]: 0.60 μmoles/hr/mg protein | Conversion Rates, n-alkane to corresponding methyl ketone [10]: 1.0 μmoles/hr/mg protein | Conversion Rate, product 1-Butanol [11]: 0.4 μmoles/hr./mg./protein | Conversion Rate, product 2-Butanol [11]: 0.5 μmoles/hr./mg./protein | Conversion Rate, product 2-Butanone [11]: 0.2 μmoles/hr./mg./protein | Conversion Rate, product n-butanol [11]: 0.2 μmoles/hr./mg./protein | Conversion Rate, n-alkane to corresponding secondary alcohol [12]: 0.89 μmoles/hr/2.0mg. of protein | Conversion Rate, n-alkane to corresponding secondary alcohol [13]: 0.09 μmoles/hr/^5 mg. protein | Conversion Rate, n-alkane to corresponding secondary alcohol [14]: 0.80 μmoles/hr/^5 mg. protein | Conversion Rate, n-alkane to corresponding secondary alcohol [15]: 1.2 μmoles/hr/^5 mg. protein | Conversion Rate, n-alkane to corresponding secondary alcohol [16]: 1.0 μmoles/hr/^5 mg. protein | Conversion Rate, n-alkane to corresponding secondary alcohol [17]: 1.5 μmoles/hr/^5 mg. protein | Conversion Rate, n-alkane to corresponding secondary alcohol [18]: 1.2 μmoles/hr/^5 mg. protein | Conversion Rate, n-alkane to corresponding secondary alcohol [19]: 0.92 μmoles/hr/2.0mg. of protein | Conversion Rate, n-alkane to corresponding secondary alcohol [20]: 0.79 μmoles/hr/2.0mg. of protein

CCC [n-Propane, n-propane]
Conversion Rate, n-alkane to corresponding secondary alcohol [1]: 1.0 μmoles/hr/2.0mg. of protein | Conversion Rate, product 1-Propanol [2]: 0.4 μmoles/hr./mg./protein | Conversion Rate, product 2-Propanol [2]: 0.6 μmoles/hr./mg./protein | Conversion Rate, product Acetone [2]: 0.2 μmoles/hr./mg./protein | Conversion Rate, product Propanol [2]: 0.1 μmoles/hr./mg./protein | Conversion Rates, n-alkane to corresponding methyl ketone [3]: 2.1 μmoles/hr/mg protein | Conversion Rates, n-alkane to corresponding methyl ketone [4]: 2.5 μmoles/hr/mg protein | Conversion Rates, n-alkane to corresponding methyl ketone [5]: 2.8 μmoles/hr/mg protein | Conversion Rates, n-alkane to corresponding methyl ketone [6]: 1.2 μmoles/hr/mg protein | Conversion Rates, n-alkane to corresponding methyl ketone [7]: 1.6 μmoles/hr/mg protein | Conversion Rates, n-alkane to corresponding methyl ketone [8]: 1.5 μmoles/hr/mg protein | Conversion Rates, n-alkane to corresponding methyl ketone [9]: 2.7 μmoles/hr/mg protein | Conversion Rates, n-alkane to corresponding methyl ketone [10]: 1.8 μmoles/hr/mg protein | Conversion Rate, product 1-Propanol [11]: 0.5 μmoles/hr./mg./protein | Conversion Rate, product 2-Propanol [11]: 0.7 μmoles/hr./mg./protein | Conversion Rate, product Acetone [11]: 0.3 μmoles/hr./mg./protein | Conversion Rate, product Propanol [11]: 0.2 μmoles/hr./mg./protein | Conversion Rate, n-alkane to corresponding secondary alcohol [12]: 1.5 μmoles/hr/2.0mg. of protein | Conversion Rate, n-alkane to corresponding secondary alcohol [13]: 0.20 μmoles/hr/^5 mg. protein | Conversion Rate, n-alkane to corresponding secondary alcohol [14]: 1.4 μmoles/hr/^5 mg. protein | Conversion Rate, n-alkane to corresponding secondary alcohol [15]: 2.1 μmoles/hr/^5 mg. protein | Conversion Rate, n-alkane to corresponding secondary alcohol [16]: 1.1 μmoles/hr/^5 mg. protein | Conversion Rate, n-alkane to corresponding secondary alcohol [17]: 2.5 μmoles/hr/^5 mg. protein | Conversion Rate, n-alkane to corresponding secondary alcohol [18]: 1.6 μmoles/hr/^5 mg. protein | Conversion Rate, n-alkane to corresponding secondary alcohol [19]: 1.2 μmoles/hr/2.0mg. of protein | Conversion Rate, n-alkane to corresponding secondary alcohol [20]: 1.32 μmoles/hr/2.0mg. of protein
